From ChEMBL document CHEMBL1799924, “Synthesis and activities of naphthalimide azoles as a new type of antibacterial and antifungal agents” (2011)
Converted amounts (≈) assume the structure as drawn.

Columns and labels:
Staphylococcus aureus [1] = test: Antibacterial activity against Staphylococcus aureus ATCC 25923 by microbroth dilution method; type: functional
Bacillus = test: Antibacterial activity against Bacillus proteus by microbroth dilution method; type: functional
Bacillus subtilis = test: Antibacterial activity against Bacillus subtilis ATCC 6633 by microbroth dilution method; type: functional
Escherichia coli = test: Antibacterial activity against Escherichia coli JM 109 by microbroth dilution method; type: functional
Micrococcus luteus = test: Antibacterial activity against Micrococcus luteus by microbroth dilution method; type: functional
Pseudomonas aeruginosa = test: Antibacterial activity against Pseudomonas aeruginosa by microbroth dilution method; type: functional
Candida = test: Antifungal activity against Candida mycoderma by microbroth dilution method; type: functional
Salmonella typhi = test: Antibacterial activity against Bacillus typhi by microbroth dilution method; type: functional, Salmonella enterica subsp. enterica serovar Typhi; conditions: Salmonella enterica
Candida albicans = test: Antifungal activity against Candida albicans ATCC 76615 by microbroth dilution method; type: functional
Staphylococcus aureus [2] = test: Antibacterial activity against methicillin-resistant Staphylococcus aureus N 315 by microbroth dilution method; type: functional

SMILES	MIC (Staphylococcus aureus [1]) [µg/mL]	MIC (Bacillus) [µg/mL]	MIC (Bacillus subtilis) [µg/mL]	MIC (Escherichia coli) [µg/mL]	MIC (Micrococcus luteus) [µg/mL]	MIC (Pseudomonas aeruginosa) [µg/mL]	MIC (Candida) [µg/mL]	MIC (Salmonella typhi) [µg/mL]	MIC (Candida albicans) [µg/mL]	MIC (Staphylococcus aureus [2]) [µg/mL]
O=C1c2cccc3c(Br)ccc(c23)C(=O)N1CCCn1cncn1	> 512	256 (≈ 665 µM)	256 (≈ 665 µM)	> 512	> 512	256 (≈ 665 µM)	256 (≈ 665 µM)	> 512	256 (≈ 665 µM)	> 512
O=C1c2cccc3c(Br)ccc(c23)C(=O)N1CCCCn1cncn1	> 512	256 (≈ 641 µM)	> 512	> 512	> 512	256 (≈ 641 µM)	> 512	> 512	> 512	> 512
O=C1c2cccc3c(Br)ccc(c23)C(=O)N1CCCCCn1cncn1	> 512	> 512	> 512	> 512	> 512	256 (≈ 619 µM)	> 512	> 512	> 512	> 512
O=C1c2cccc3c(Br)ccc(c23)C(=O)N1CCCn1c[n+](Cc2ccc(F)cc2F)cn1.[Br-]	16	8	4	4	8	1	4	4	8	4
O=C1c2cccc3c(Br)ccc(c23)C(=O)N1CCCn1c[n+](Cc2ccc(Cl)cc2Cl)cn1.[Br-]	16	4	8	4	8	4	8	16	8	16
O=C1c2cccc3c(Br)ccc(c23)C(=O)N1CCCn1c[n+](Cc2ccc(Cl)c(Cl)c2)cn1.[Br-]	16	32	32	16	16	16	16	16	16	16
O=C1c2cccc3c(Br)ccc(c23)C(=O)N1CCCn1c[n+](Cc2ccccc2Cl)cn1.[Br-]	16	32	32	16	16	16	32	32	8	16
O=C1c2cccc3c(Br)ccc(c23)C(=O)N1CCCn1c[n+](Cc2ccc(Cl)cc2)cn1.[Br-]	32	16	16	8	8	8	16	16	16	8
O=C1c2cccc3c(Br)ccc(c23)C(=O)N1CCCn1c[n+](Cc2ccc([N+](=O)[O-])cc2)cn1.[Br-]	32	16	32	16	32	32	16	32	32	16
O=C1c2cccc3c(Br)ccc(c23)C(=O)N1CCCCn1c[n+](Cc2ccc(F)cc2F)cn1.[Br-]	16	16	16	8	16	2	32	8	16	16
O=C1c2cccc3c(Br)ccc(c23)C(=O)N1CCCCCn1c[n+](Cc2ccc(F)cc2F)cn1.[Br-]	32	32	32	8	16	2	16	16	16	16
O=C1c2cccc3c(Br)ccc(c23)C(=O)N1CCCn1ccnc1	16 (≈ 41.6 µM)	16 (≈ 41.6 µM)	16 (≈ 41.6 µM)	16 (≈ 41.6 µM)	16 (≈ 41.6 µM)	32 (≈ 83.3 µM)	64 (≈ 167 µM)	16 (≈ 41.6 µM)	64 (≈ 167 µM)	16 (≈ 41.6 µM)
O=C1c2cccc3c(Br)ccc(c23)C(=O)N1CCCCn1ccnc1	16 (≈ 40.2 µM)	16 (≈ 40.2 µM)	32 (≈ 80.3 µM)	8 (≈ 20.1 µM)	16 (≈ 40.2 µM)	16 (≈ 40.2 µM)	32 (≈ 80.3 µM)	16 (≈ 40.2 µM)	64 (≈ 161 µM)	16 (≈ 40.2 µM)
O=C1c2cccc3c(Br)ccc(c23)C(=O)N1CCCCCn1ccnc1	64 (≈ 155 µM)	32 (≈ 77.6 µM)	64 (≈ 155 µM)	32 (≈ 77.6 µM)	64 (≈ 155 µM)	64 (≈ 155 µM)	64 (≈ 155 µM)	128 (≈ 310 µM)	128 (≈ 310 µM)	128 (≈ 310 µM)
O=C1c2cccc3c(Br)ccc(c23)C(=O)N1CCCCCCn1ccnc1	64 (≈ 150 µM)	16 (≈ 37.5 µM)	16 (≈ 37.5 µM)	64 (≈ 150 µM)	128 (≈ 300 µM)	128 (≈ 300 µM)	32 (≈ 75.1 µM)	32 (≈ 75.1 µM)	32 (≈ 75.1 µM)	64 (≈ 150 µM)
O=C1c2cccc3c(Br)ccc(c23)C(=O)N1CCCn1cc[n+](Cc2ccc(F)cc2F)c1.[Br-]	4	8	8	8	8	8	32	8	32	4
O=C1c2cccc3c(Br)ccc(c23)C(=O)N1CCCCn1cc[n+](Cc2ccc(F)cc2F)c1.[Br-]	8	16	8	8	8	16	16	8	32	2
O=C1c2cccc3c(Br)ccc(c23)C(=O)N1CCCCCCn1cncn1	> 512	> 512	> 512	> 512	> 512	> 512	> 512	> 512	> 512	> 512
O=C1c2cccc3c(Br)ccc(c23)C(=O)N1CCCCCCn1c[n+](Cc2ccc(F)cc2F)cn1.[Br-]	16	32	16	32	32	8	64	16	32	32
O=C(N[C@H](CO)[C@H](O)c1ccc([N+](=O)[O-])cc1)C(Cl)Cl [CHLORAMPHENICOL]	2 (≈ 6.19 µM)	2 (≈ 6.19 µM)	4 (≈ 12.4 µM)	8 (≈ 24.8 µM)	8 (≈ 24.8 µM)	16 (≈ 49.5 µM)		8 (≈ 24.8 µM)		4 (≈ 12.4 µM)
OC(Cn1cncn1)(Cn1cncn1)c1ccc(F)cc1F [FLUCONAZOLE]							4 (≈ 13.1 µM)		1 (≈ 3.27 µM)	
C[C@@H]1CN(c2c(F)c(F)c3c(=O)c(C(=O)O)cn(C4CC4)c3c2F)C[C@H](C)N1 [ORBIFLOXACIN]	2 (≈ 5.06 µM)	4 (≈ 10.1 µM)	2 (≈ 5.06 µM)	1 (≈ 2.53 µM)	1 (≈ 2.53 µM)	1 (≈ 2.53 µM)		1 (≈ 2.53 µM)		1 (≈ 2.53 µM)
